Laboratory results taken from patent US20230380460A1 (priority 2020, published 2023).

Key:
Assay type in all cases: cell-based
[1] = test system: lactic flora; experiment: Spoilage analysis of cooked emulsified sausage: lactic flora; conditions: cooked emulsified sausage during storage
Experimental: (§1) A part was inoculated on surface with Listeria monocytogenes for the challenge test and the other part was kept safe for shelf life microbiological study as well as organoleptic and physical characterization. Cooked emulsified sausages were then stored in vacuum packaging.
(§2) Microbiological analysis was performed according to current standard EC regulation 2073/2005, at d0 after packaging, several days during the storage (from D4 to D7 or D14 according to the studies).
(§3) For cooked emulsified sausage, 14 days of shelf-life with 7 days of storage at 4° C. and 7 days at 8° C., to simulate a break in the cold chain (standardized method NF V01-003).
(§4) Group of microorganisms counts performed are listed below: • Total plate count (NF EN ISO 4833-1), • Lactic acid bacteria (NF ISO 15214) both mesophilic and psychotrophic • Enterobacteriaceace (ISO 21528-2), • Pseudomonas sp. (EN ISO 13720), • Brochothrix thermosphacta • Anaerobic enumeration of sulfito-reducing bacteria (NF V08-061), • Challenge test Listeria monocytogenes (NF-EN ISO 11290-2). • Challenge test Salmonella (NF-EN ISO 6579-1).

[2] = test system: total flora (total plate count); experiment: Spoilage analysis of cooked emulsified sausage: total plate count; conditions: cooked emulsified sausage during storage
Experimental: as §1, §2, §3, §4

[3] = test system: Listeria monocytogenes; conditions: fresh ground sausage, d8

## lactate
[1]
  Growth of lactic flora: normal growth
[2]
  Growth of total flora: normal growth
[3]
  Δ log cfu/g of Listeria growth versus untreated control: −0.9 log cfu/g
